Experiments:
MRL/lpr mice [1] = assay: Survival / mortality, MRL/lpr mice (Example 1); conditions: for EOS survival, true EOS mouse percentage from starting population: vehicle 92
Method: Six week old lupus-prone, female, MRL/lpr (Jackson Labs, #000485) and non-lupus prone control MRL/MpJ (Jackson Labs, #000486) mice are obtained from Jackson Laboratories (Bar Harbor, Me.) at 6-weeks of age. All mice are maintained on a 24 hour light/dark cycle, with food and water available ad libitum. All experimental animal procedures are approved by and in accordance to the regulations of the Institutional Animal Care and Use Committee (IACUC) of Cephalon, Inc; approved IACUC protocol #03-040 and #03-03-041.
Due to this impaired tolerance mechanism, a percentage of all T and B cells that enter the periphery have a high likelihood of responding to self protein/tissues and thus initiate autoimmunity early in life. The MRL/lpr model mice develop several chronic inflammatory disease-like symptoms that are characteristic of early and late lupus including the generation of anti-nuclear antibodies, arthritis, dermatological manifestations, immunocomplex-mediated glomerulonephritis leading to proteinuria and eventual death. Lesser characterized phenomenon are CNS and cardiac manifestations, both of which are more common in humans. […] Mortality is higher in the females and occurs around 25 weeks of age, renal disease includes glomerulonephritis, glomerular infiltrates, sclerosis and vasculitis. Both splenomegaly and lymphomegaly associated with dermatitis can also be observed.
MRL/lpr mice are first randomized, initial bleeds collected, and body weights recorded for baseline measurements (FIG. 1). All mice are individually ear tagged and are monitored throughout the entire experiment (e.g., “Group#-Cage letter-Mouse#”, so “3B5”=Group 3 (G3), cage B, mouse #5). Mice are age-matched and treatment started at 6-8 weeks of age. Cheek bleeds and urine collection continues weekly throughout the experiment. Mice are individually tracked for several parameters including cytokine and ANA levels, proteinuria, body mass, lymphomegaly, general health, and mortality. All parameters are evaluated bi-monthly except mortality which is monitored daily. All groups consist of a minimum of at least 10-12 mice per group. Ex vivo experiments include flow cytometry analyses for plasma cells, serum complement C3 and ANA levels; urine protein and leukocytes, serum cytokine profiling, renal histo pathology, and determination of compound levels (pharmacokinetics (PK)) in the spleen, kidney and plasma. Mice are tracked on an individual basis. For all data, mice are grouped into populations and data graphed as mean±SEM. End-stage readouts are analyzed as described in the MATERIALS AND METHODS section (above) and in FIG. 1.
Vehicle alone is provided orally twice weekly (p.o.). Both proteasome inhibitors are suspended in the vehicle solution. Bi-monthly bleeds and urine are collected and frozen at […] until assayed. End analyses include kidney histology, splenocyte B-cell Elispots, flow cytometry for B and T cell populations, PD markers, serum cytokines, antibody and complement levels. In addition, urine proteinuria is determined for all animals.
In group two (G2), COMPOUND A was administered at a dose of 3 mg/kg iv twice weekly. In group three (G3), COMPOUND A was administered at a dose of 10 mg/kg p.o. twice weekly. […] In the new group five (G5), bortezomib was administered at a dose of 0.3 mg/kg iv twice weekly. Dexamethasone was administered at a dose of 1.5 mg/kg/2d (M, W, F) ip. Vehicle was 3% DMSO/10% Solutol/87% PBS. In those instances in which mice could not be injected via the iv route, agents were administered ip as noted in Table 1.

MRL/lpr mice [2] = assay: Splenomegaly (spleen mass), MRL/lpr mice; type: in vivo, mouse
Method: FIG. 5 depicts splenomegaly for MRL/lpr mice across treatment groups for the study duration. MRL/lpr mice were treated as outlined in the legend. The spleen masses for all mice that survived until the end of the experiment are graphed. Each symbol represents the spleen weight for one mouse at 25 weeks of age.
Mice are tracked on an individual basis.
Vehicle alone is provided orally twice weekly (p.o.). Both proteasome inhibitors are suspended in the vehicle solution. […] In addition, urine proteinuria is determined for all animals.
Vehicle was 3% DMSO/10% Solutol/87% PBS.

NZM mice [3] = assay: Urinalysis: total urine protein (proteinuria), NZM mice (Example 2); type: in vivo, mouse
NZM mice [4] = assay: Antibody secreting B-cell Elispot (anti-chromatin, total IgG ASC), spleens of NZM mice (Example 2); type: in vivo, mouse
Method: (§1) FIG. 34 depicts the frequency of anti-chromatin antibody secreting cells in the spleens of NZM mice. NZM treated mice spleens were processed for splenocytes for ex vivo Elispot assays. Elispot wells were coated with 10 μg/mL of boiled chicken chromatin or ovalbumin protein. Fresh, whole splenocytes were added to each well at 50,000 cells per well in cell culture medium. Cells were incubated overnight at 37° C. Developed wells provided spots that were counted as frequency of ASCs per million splenocytes.
as §1, with “35” for “34”, “total IgG” for “anti-chromatin”, “anti-mouse IgG, IgH, and IgL chains.” for “boiled chicken chromatin or ovalbumin protein.”
B-cell Elispot components are ordered from MabTech (Nacka Strand, Sweden) and nitrocellulose IP filter plates are ordered from Millipore (Billerica, Mass.). Elispot wells are coated with either purified bovine thymus dsDNA (Sigma), purified bovine Smith antigen (GenWay) or boiled filtered purified chicken chromatin from lysed chicken red blood cells (Rockland, Gilbertsville, Pa.) at 10 μg/mL. Spleens are processed using glass homogenization (frosted slides). Dispersed cell contents are washed in sterile HBSS and RBCs lysed using 1×RBC lysis buffer (BioLegend, Cat #420301). Processed splenocytes are added to each well and are not stimulated with lipopolysaccharide (LPS) to avoid skewing of true ex vivo frequencies of antibody-secreting cell types (ASCs). Anti-mouse pan-IgG is used as a positive control for total IgG producing ASCs and is used to normalize results. Frequencies for each antigen are identified in an initial test phase for each model. For chromatin and total IgG only, 30,000 splenocytes are added to each well; for Smith antigen and dsDNA, 500,000 cells are added to each well. Different numbers of splenocytes are added for different antigens due to saturation limits of spot frequencies per well. B-cell Elispots are incubated overnight at 37° C. To develop each assay, secondary antibody is added to each well, incubated, washed and alkaline phosphatase strepavidin (Jackson ImmunoResearch, West Grove, Pa.) is used as the conjugate; substrate used is BCIP-NBT (MabTech, Cincinnati, Ohio). Plates are developed until spots are visible. All Elispot analyses are performed using an Immunospot C.T.L. scanner and Biospot software (Cellular Technology Ltd., Shaker Heights, Ohio). Results are shown as values from which media and cells only wells are subtracted. Some values are negative due to high background.

CC(C)C[C@H](NC(=O)[C@@H](NC(=O)c1cccc(-c2ccccc2)n1)[C@@H](C)O)B(O)O [COMPOUND A, [(1R)-1-[[(2S,3R)-3-hydroxy-2-[6-phenyl-pyridine-2-carbonyl)amino]-1-oxobutyl]amino]-3-methylbutylboronic acid]
increase in survival over that of vehicle (MRL/lpr mice [1]; 0.3 mg/kg iv twice weekly regimen (so in the source)): 8.4% | increase in survival over that of vehicle (MRL/lpr mice [1]; 0.3 mg/kg once weekly regimen (so in the source)): 5% | increase in survival over that of vehicle (MRL/lpr mice [1]; 10 mg/kg oral, twice weekly regimen): 8.4% | EOS survival, true EOS mouse percentage from starting population (MRL/lpr mice [1]; G1: 3 mg/kg iv, 1× wk): 87% | EOS survival, true EOS mouse percentage from starting population (MRL/lpr mice [1]; G2: 3 mg/kg iv, 2× wk): 100% | EOS survival, true EOS mouse percentage from starting population (MRL/lpr mice [1]; G3: 10 mg/kg po, 2× wk): 100% | animal mortality (mice dead out of total) (MRL/lpr mice [1]; initial G1 dose 4 mg/kg iv once weekly, at day 71): 4 out of 15 | splenomegaly decrease vs vehicle at the end of the study (MRL/lpr mice [2]; 3 mg/kg iv twice weekly): 74% | EOS spleen mass, percent change vs vehicle (MRL/lpr mice [2]; G1: 3 mg/kg iv, 1× wk): −67% | EOS spleen mass, percent change vs vehicle (MRL/lpr mice [2]; G2: 3 mg/kg iv, 2× wk): −74% | EOS spleen mass, percent change vs vehicle (MRL/lpr mice [2]; G3: 10 mg/kg po, 2× wk): −56% | Urine proteinuria AUC, percent change vs vehicle (NZM mice [3]; G1 3 mg/kg ip, 1× wk): −61% | Urine proteinuria AUC, percent change vs vehicle (NZM mice [3]; G2 3 mg/kg ip, 2× wk): −72% | proteinuria reduction compared to vehicle (NZM mice [3]; Group 1: 3 mg/kg ip once per week): 61% | proteinuria reduction compared to vehicle (NZM mice [3]; Group 2: 3 mg/kg ip twice weekly): 72% | anti-chromatin ASC decrease vs vehicle (NZM mice [4]; COMPOUND A groups): 96-100% | p, frequency of anti-chromatin antibody secreting cells in spleen vs G5 Bortezomib 0.3 mg/kg 1× wk ip (NZM mice [4]; G1 3 mg/kg 1× wk ip): p < 0.001 | p, frequency of anti-chromatin antibody secreting cells in spleen vs G6 Bortezomib 0.3 mg/kg 2× wk ip (NZM mice [4]; G1 3 mg/kg 1× wk ip): p < 0.01 | p, frequency of anti-chromatin antibody secreting cells in spleen vs G8 Dex 1.5 mg/kg 3× wk ip (NZM mice [4]; G1 3 mg/kg 1× wk ip): p < 0.01 | p, frequency of anti-chromatin antibody secreting cells in spleen vs G9 Vehicle 1× wk ip (NZM mice [4]; G1 3 mg/kg 1× wk ip): p < 0.01 | p, frequency of total IgG antibody secreting cells in spleen vs G5 Bortezomib 0.3 mg/kg 1× wk ip (NZM mice [4]; G1 3 mg/kg 1× wk ip): p < 0.01 | p, frequency of total IgG antibody secreting cells in spleen vs G7 CTX 50 mg/kg 1× wk ip (NZM mice [4]; G1 3 mg/kg 1× wk ip): p < 0.01 | p, frequency of total IgG antibody secreting cells in spleen vs G8 Dex 1.5 mg/kg 3× wk ip (NZM mice [4]; G1 3 mg/kg 1× wk ip): p < 0.01 | p, frequency of total IgG antibody secreting cells in spleen vs G9 Vehicle 1× wk ip (NZM mice [4]; G1 3 mg/kg 1× wk ip): p < 0.05 | ASC chromatin EOS, percent change vs vehicle (NZM mice [4]; G1 3 mg/kg ip, 1× wk): −96% | ASC total IgG EOS, percent change vs vehicle (NZM mice [4]; G1 3 mg/kg ip, 1× wk): −62% | p, frequency of anti-chromatin antibody secreting cells in spleen vs G5 Bortezomib 0.3 mg/kg 1× wk ip (NZM mice [4]; G2 3 mg/kg 2× wk ip): P < 0.01 | p, frequency of anti-chromatin antibody secreting cells in spleen vs G6 Bortezomib 0.3 mg/kg 2× wk ip (NZM mice [4]; G2 3 mg/kg 2× wk ip): p < 0.05 | p, frequency of anti-chromatin antibody secreting cells in spleen vs G9 Vehicle 1× wk ip (NZM mice [4]; G2 3 mg/kg 2× wk ip): p < 0.01 | p, frequency of total IgG antibody secreting cells in spleen vs G5 Bortezomib 0.3 mg/kg 1× wk ip (NZM mice [4]; G2 3 mg/kg 2× wk ip): p < 0.001 | p, frequency of total IgG antibody secreting cells in spleen vs G7 CTX 50 mg/kg 1× wk ip (NZM mice [4]; G2 3 mg/kg 2× wk ip): p < 0.01 | p, frequency of total IgG antibody secreting cells in spleen vs G8 Dex 1.5 mg/kg 3× wk ip (NZM mice [4]; G2 3 mg/kg 2× wk ip): p < 0.01 | p, frequency of total IgG antibody secreting cells in spleen vs G9 Vehicle 1× wk ip (NZM mice [4]; G2 3 mg/kg 2× wk ip): p < 0.01 | ASC chromatin EOS, percent change vs vehicle (NZM mice [4]; G2 3 mg/kg ip, 2× wk): −100% | ASC total IgG EOS, percent change vs vehicle (NZM mice [4]; G2 3 mg/kg ip, 2× wk): −67% | total IgG producing ASC decrease vs vehicle (NZM mice [4]; spleen): 62-67%

CC(C)C[C@H](NC(=O)[C@H](Cc1ccccc1)NC(=O)c1cnccn1)B(O)O [bortezomib, reference compound]
decrease in survival over that of vehicle at EOS (MRL/lpr mice [1]; 0.3 mg/kg iv twice weekly): 19% | decrease in survival over that of vehicle at EOS (MRL/lpr mice [1]; 0.5 mg/kg iv once weekly): 2% | EOS survival, true EOS mouse percentage from starting population (MRL/lpr mice [1]; G4: 0.5 mg/kg iv, 1× wk): 90% | EOS survival, true EOS mouse percentage from starting population (MRL/lpr mice [1]; G5: 0.3 mg/kg iv, 2× wk): 73% | tolerability of initial dose (MRL/lpr mice [1]; initial G4 dose 0.5 mg/kg iv twice weekly): animal mortality | EOS spleen mass, percent change vs vehicle (MRL/lpr mice [2]; G4: 0.5 mg/kg iv, 1× wk): −68% | EOS spleen mass, percent change vs vehicle (MRL/lpr mice [2]; G5: 0.3 mg/kg iv, 2× wk): −44% | Urine proteinuria AUC, percent change vs vehicle (NZM mice [3]; G3 0.3 mg/kg ip, 1× wk): 30% | Urine proteinuria AUC, percent change vs vehicle (NZM mice [3]; G4 0.3 mg/kg ip, 2× wk): −57% | ASC chromatin EOS, percent change vs vehicle (NZM mice [4]; G3 0.3 mg/kg ip, 1× wk): −46% | ASC total IgG EOS, percent change vs vehicle (NZM mice [4]; G3 0.3 mg/kg ip, 1× wk): −1% | ASC chromatin EOS, percent change vs vehicle (NZM mice [4]; G4 0.3 mg/kg ip, 2× wk): −74% | ASC total IgG EOS, percent change vs vehicle (NZM mice [4]; G4 0.3 mg/kg ip, 2× wk): −31%

C[C@@H]1C[C@H]2[C@@H]3CCC4=CC(=O)C=C[C@]4(C)[C@@]3(F)[C@@H](O)C[C@]2(C)[C@@]1(O)C(=O)CO [dexamethasone, Dexamethasone, reference compound]
EOS survival, true EOS mouse percentage from starting population (MRL/lpr mice [1]; G6: 1.5 mg/kg ip, 3× wk): 83% | EOS spleen mass, percent change vs vehicle (MRL/lpr mice [2]; G6: 1.5 mg/kg ip, 3× wk): −71% | Urine proteinuria AUC, percent change vs vehicle (NZM mice [3]; G5 1.5 mg/kg ip, 3× wk): 27% | ASC chromatin EOS, percent change vs vehicle (NZM mice [4]; G5 1.5 mg/kg ip, 3× wk): −42% | ASC total IgG EOS, percent change vs vehicle (NZM mice [4]; G5 1.5 mg/kg ip, 3× wk): +19% | p, frequency of total IgG antibody secreting cells in spleen vs G7 CTX 50 mg/kg 1× wk ip (NZM mice [4]; G8 1.5 mg/kg 3× wk ip): p < 0.01
